The nature of test [1]: general cell-killing toxicity readout – plate reader, dry powder samples, cytotoxicity control for PAX8 inhibitor project, dose response (AID 743021). In kind it is functional, cell-based.
The next test addresses Paired box protein Pax-8 (Homo sapiens, UniProt Q06710). Description: PAX8 transcriptional activity inhibition in RMG-I – RMG-I cells, luciferase, cherry-pick, dose response (AID 687027).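 Also: luciferase reporter driven by Pax8 target thyroperoxidase promoter measured by SteadyGlo luminescence.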 In kind it is functional, cell-based.
For test [2], the target named is T1, Corticotropin-releasing factor receptor 2/Corticotropin-releasing factor-binding protein (Homo sapiens, UniProt P24387+Q13324).
T1 sequence (Q13324 whole entry): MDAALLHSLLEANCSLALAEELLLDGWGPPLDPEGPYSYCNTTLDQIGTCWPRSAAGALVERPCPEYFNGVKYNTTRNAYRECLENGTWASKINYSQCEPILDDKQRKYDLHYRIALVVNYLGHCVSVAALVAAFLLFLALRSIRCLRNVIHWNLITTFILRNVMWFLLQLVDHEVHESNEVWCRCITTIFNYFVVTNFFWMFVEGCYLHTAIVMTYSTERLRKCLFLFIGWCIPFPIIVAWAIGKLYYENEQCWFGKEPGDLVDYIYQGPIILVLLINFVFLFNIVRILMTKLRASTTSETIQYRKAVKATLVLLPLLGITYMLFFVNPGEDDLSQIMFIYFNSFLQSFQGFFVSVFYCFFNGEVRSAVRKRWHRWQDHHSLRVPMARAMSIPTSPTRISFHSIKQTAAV
T1 sequence (P24387 whole entry): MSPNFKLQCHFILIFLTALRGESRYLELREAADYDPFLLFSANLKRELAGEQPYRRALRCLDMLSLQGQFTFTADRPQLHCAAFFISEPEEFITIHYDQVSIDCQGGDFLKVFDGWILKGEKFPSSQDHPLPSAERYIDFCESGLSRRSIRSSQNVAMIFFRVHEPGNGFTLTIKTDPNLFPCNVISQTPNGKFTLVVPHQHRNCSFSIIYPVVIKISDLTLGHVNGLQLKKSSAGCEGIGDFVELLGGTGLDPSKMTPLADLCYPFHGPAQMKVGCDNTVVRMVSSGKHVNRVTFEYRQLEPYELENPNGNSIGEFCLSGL
In words: activators of CRF receptor 2 with binding protein – uHTS hits, confirmation (AID 602473). Type of test: functional. The conditions noted are these: read-out: EC50_Mean.

The target in test [3] is T2, DNA repair and recombination protein RAD54-like (Homo sapiens, UniProt Q92698).
T2 sequence (Q92698 whole entry): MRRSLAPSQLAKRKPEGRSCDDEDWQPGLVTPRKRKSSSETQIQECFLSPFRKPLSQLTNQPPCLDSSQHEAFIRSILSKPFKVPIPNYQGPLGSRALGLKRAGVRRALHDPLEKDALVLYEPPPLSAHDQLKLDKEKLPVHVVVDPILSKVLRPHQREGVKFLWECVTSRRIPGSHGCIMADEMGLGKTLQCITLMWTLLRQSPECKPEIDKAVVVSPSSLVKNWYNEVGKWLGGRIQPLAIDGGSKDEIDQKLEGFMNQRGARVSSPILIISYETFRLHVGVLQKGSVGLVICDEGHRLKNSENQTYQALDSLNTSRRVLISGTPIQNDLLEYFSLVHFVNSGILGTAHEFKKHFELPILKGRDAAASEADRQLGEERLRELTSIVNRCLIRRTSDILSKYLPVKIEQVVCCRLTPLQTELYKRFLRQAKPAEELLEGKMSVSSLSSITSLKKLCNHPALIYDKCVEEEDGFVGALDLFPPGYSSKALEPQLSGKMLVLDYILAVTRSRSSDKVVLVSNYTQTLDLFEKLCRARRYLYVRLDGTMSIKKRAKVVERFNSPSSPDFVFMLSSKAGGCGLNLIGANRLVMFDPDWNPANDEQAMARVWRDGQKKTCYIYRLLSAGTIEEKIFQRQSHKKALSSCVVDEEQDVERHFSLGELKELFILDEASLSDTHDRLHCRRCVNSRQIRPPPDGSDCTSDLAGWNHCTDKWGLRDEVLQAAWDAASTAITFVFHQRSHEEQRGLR
Description: RAD54 Holliday junction migration blockers – biochemical, fluorescence, cherry-picked samples, dose series, confirmation (AID 651657). Type of test: functional.

Test [4] can be described thus: reduced cellular PGC1a acetyl-lysine signal – cell-based, cherry-picked samples, dose response (AID 720514).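 Also: potency may reflect raised or lowered acetylation signal.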 Type of test: functional.
Test [5] is described as follows: viability loss in THP-1 monocytes – THP-1 cells, cytotoxicity control for Vif-APOBEC3G degradation inhibitor project, dose response (AID 1117359). In kind it is functional. Conditions: THP-1.
The nature of test [6]: cells. Type of test: functional, cell-based.
Test [7] can be described thus: cells. In kind it is functional, cell-based. This is another data set of the same source.
Test [8] in a line: HIV-1 AD8 envelope cell-cell fusion blockers – cherry-pick, dose response (AID 652062).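 Also: luciferase signal from cell-cell fusion driven by HIV-1 clade B AD8 Env; potency is for inhibitors of fusion seen as a drop in luminescence.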 In kind it is functional, cell-based.
The nature of test [9]: off-target signal loss in HeLa-CEM21 co-culture – HeLa F-luc CTL cells, cherry-picked, counter-screen for HIV-1 Env fusion inhibitor project, dose response (AID 652040).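 Also: potency for signal decrease marking cytotoxic or nonspecific inhibition.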 In kind it is functional, cell-based. For orientation: A counterscreen serves to expose hits that act by an unwanted route or on another target.
A short description of test [10]: blockers of HIV-1 envelope-mediated cell-cell fusion – cherry-pick, dose response (AID 652057). In kind it is functional, cell-based.
Test [11] in a line: blockers of HIV-1 ZM109 envelope-driven cell-cell fusion – HeLa effector, CEM target cells, luciferase, cherry-pick, dose response (AID 652058).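 Also: luciferase signal from HIV-1 Env mediated cell-cell fusion of effector and target cells.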 In kind it is functional, cell-based.
For another test, the system named is H9c2. Description: cells. In kind it is functional, cell-based. The conditions noted are these: Rattus norvegicus, H9c2, Myocardium.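 Also: confirmatory concentration-response retest of ultra-high-throughput screening hits for modulation of myocardial damage; cell death induced by hydrogen peroxide oxidative stress; compound pretreatment for 60 min then peroxide exposure for 2 h; potency is for protecting the cells against peroxide damage rather than for killing them.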
The target in test [12] is T3, DNA repair protein RAD52 homolog (Homo sapiens, UniProt P43351).
T3 sequence (P43351 whole entry): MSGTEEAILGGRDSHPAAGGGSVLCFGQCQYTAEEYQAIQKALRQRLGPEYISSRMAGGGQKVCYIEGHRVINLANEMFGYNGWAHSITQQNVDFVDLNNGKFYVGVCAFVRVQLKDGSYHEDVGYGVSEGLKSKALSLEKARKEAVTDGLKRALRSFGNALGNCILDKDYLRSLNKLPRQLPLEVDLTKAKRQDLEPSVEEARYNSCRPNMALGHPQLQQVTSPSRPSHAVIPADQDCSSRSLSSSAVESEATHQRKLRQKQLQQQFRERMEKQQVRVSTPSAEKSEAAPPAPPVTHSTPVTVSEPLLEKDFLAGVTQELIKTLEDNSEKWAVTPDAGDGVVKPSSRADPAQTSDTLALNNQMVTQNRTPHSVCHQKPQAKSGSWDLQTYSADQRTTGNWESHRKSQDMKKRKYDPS
In kind it is functional, biochemical.

Test [13] deals with T4, RNA-binding protein pos-1 (Caenorhabditis elegans, UniProt G5EF15).
T4 sequence (G5EF15 whole entry): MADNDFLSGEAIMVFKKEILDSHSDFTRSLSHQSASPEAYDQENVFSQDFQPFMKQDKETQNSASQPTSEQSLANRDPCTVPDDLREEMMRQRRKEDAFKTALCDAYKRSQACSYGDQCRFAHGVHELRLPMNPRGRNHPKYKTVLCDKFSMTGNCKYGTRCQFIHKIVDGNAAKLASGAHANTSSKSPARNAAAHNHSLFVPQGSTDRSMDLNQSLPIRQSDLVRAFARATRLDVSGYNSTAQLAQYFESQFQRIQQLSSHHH
Description: disruptors of C. elegans POS-1 RNA interaction – biochemical, fluorescence polarization, dose response (AID 1964).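 Also: purified POS-1 fused to maltose binding protein made in E. coli; potency of compounds blocking POS-1 binding to fluorescent RNA.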

In test [14] the target is T5, Zinc finger protein mex-5 (Caenorhabditis elegans, UniProt Q9XUB2).
T5 sequence (Q9XUB2 whole entry): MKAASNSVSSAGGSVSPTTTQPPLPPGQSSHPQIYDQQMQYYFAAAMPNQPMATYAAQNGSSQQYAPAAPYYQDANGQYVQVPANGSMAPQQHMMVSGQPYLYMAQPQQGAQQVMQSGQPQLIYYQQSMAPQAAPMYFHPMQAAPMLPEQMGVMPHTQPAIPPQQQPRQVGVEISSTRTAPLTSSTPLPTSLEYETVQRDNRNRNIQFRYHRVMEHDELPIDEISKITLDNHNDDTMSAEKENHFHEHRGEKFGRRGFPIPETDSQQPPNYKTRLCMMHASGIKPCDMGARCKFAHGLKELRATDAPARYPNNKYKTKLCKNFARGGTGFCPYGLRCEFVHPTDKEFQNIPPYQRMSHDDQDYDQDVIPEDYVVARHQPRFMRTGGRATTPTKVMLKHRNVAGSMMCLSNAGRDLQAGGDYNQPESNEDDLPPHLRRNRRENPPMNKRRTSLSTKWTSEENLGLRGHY
Description: potency of MEX-5 RNA-binding blockers – biochemical, C. elegans, fluorescence polarization, dose response (AID 1960).

A short description of test [15]: blockade of melanocortin 4 receptor signaling – cell-based, plate reader, cherry pick, counter-screen for LGR2 antagonist project, dose response (AID 743444).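 Also: transfected HEK 293 cells stimulated with alpha-MSH peptide; potency of inhibitors of the alpha-MSH evoked signal.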 Type of test: functional.
Test [16] can be described thus: A549 cell cytotoxicity, dose response, cytotoxicity control, plate reader, cherry-pick, antagonist series (AID 743412). In kind it is functional, cell-based.
A short description of test [17]: blockers of bursicon-stimulated LGR2 cAMP reporter – cell-based, HEK293, CRE-luciferase reporter, cherry pick, set 2, dose response (AID 743343).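 Also: transfected cells were stimulated with diluted bursicon conditioned medium after compound addition.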 Type of test: functional. For orientation: In a reporter assay the amount or activity of a reporter protein is the signal.
Test [18] in a line: viability loss in HEK293 cells – cell-based, plate reader, cherry-picked samples, cytotoxicity control, dose response (AID 743446). Type of test: functional.
Test [19] is described as follows: toxicity toward HepG2 liver cells – cell-based, plate reader, cherry-pick, antagonist series, cytotoxicity control, dose response (AID 743416). Type of test: functional.

The term AC50 denotes the concentration giving half of the maximal activity seen. As usually defined, the CC50 is the concentration that lowers cell viability or growth by half. As usually defined, the IC50 is the concentration at which inhibition is half-maximal.

The source made the active and inactive calls.

Chain of Paired box protein Pax-8 (Q06710 whole entry): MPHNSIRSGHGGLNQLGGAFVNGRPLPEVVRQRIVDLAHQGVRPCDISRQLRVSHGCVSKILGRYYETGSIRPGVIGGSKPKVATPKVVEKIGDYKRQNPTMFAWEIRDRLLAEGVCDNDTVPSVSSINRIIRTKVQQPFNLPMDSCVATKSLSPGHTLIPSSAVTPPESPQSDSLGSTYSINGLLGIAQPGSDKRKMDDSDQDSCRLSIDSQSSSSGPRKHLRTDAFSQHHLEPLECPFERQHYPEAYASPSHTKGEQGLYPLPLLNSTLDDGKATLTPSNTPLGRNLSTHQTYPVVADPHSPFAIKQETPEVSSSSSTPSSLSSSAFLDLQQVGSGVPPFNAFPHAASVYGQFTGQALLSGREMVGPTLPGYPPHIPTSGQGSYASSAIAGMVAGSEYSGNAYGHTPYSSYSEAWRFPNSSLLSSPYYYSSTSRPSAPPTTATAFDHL

Take `CC1=C(N2CC2)C(=O)C(CO)=C(N2CC2)C1=O`: the AC50 is 14.8 µM (active) in [1] and < 0.26 µM (active) on Paired box protein Pax-8.
In the case of `COC(=O)c1c(NC(=O)c2ccco2)sc2c1CCN(C(C)C)C2`, the EC50 in test [2] was > 53 µM (inactive). The AC50 in [3] was 25.4 µM (active).
`CN(C)C(CNC(=O)CCCN1C(=O)c2cccc3cccc(c23)C1=O)c1ccccc1` (stereo not given): the AC50 in test [3] is 43.4 µM (active).
Regarding `CC[C@H](C)[C@H](NC(=O)c1ccc(Cl)cc1)C(=O)OCC(=O)c1ccc2c(c1)NC(=O)CO2`, the concentration at half-maximal activity (AC50) in test [4] is 6.76 µM (active).
Regarding `COc1ccc(CCNCc2ccc(OCc3ccccc3)cc2)cc1`, the CC50 in test [5] was 21.9 µM (active).
Consider `Cc1cc2ccc3ccccc3c2cc1CN(C)C`, for which the EC50 in the test “cells [6]” and in “cells [7]” was > 350 µM (not active) each time. For the same compound, the AC50 in test [3] is 38.3 µM (active).
For `COc1ccc(-c2cc(=O)oc3c(C)c(O)c(CN(C)C)cc23)cc1`, the AC50 in test [8] was 17.4 µM (active); in test [9], 7.97 µM (active); in [10] it was 13 µM (active); in test [11], 18.1 µM (active). Also, in the test on H9c2, the IC50 was > 79 µM (inactive).
Take `CC(C)OCC(O)CN1CCN(CCN2C(=O)c3cccc4cccc(c34)C2=O)CC1` (stereo not given): the AC50 was 3.93 µM (active) in [12] and 8.86 µM (active) in test [3]. The EC50 in [13] and in [14] was > 300 µM (not active) each time.
`COC(=O)[C@@]1(C)[C@H]2C(=O)N(Cc3ccccc3)C(=O)[C@H]2[C@H]2CN=C(SCC3CC3)N21`: the concentration at half-maximal activity (AC50) is 7.31 µM (active) in [8], 2.95 µM (active) in test [9], 2.13 µM (active) in test [10] and 2.3 µM (active) in test [11].
Regarding `CC(=O)Nc1cccc(NC(=N)Nc2nc(C)cc(C)n2)c1`, the AC50 in [12] is 18.8 µM (active).
Take `COc1cc(C(=O)NC2CCN(C)CC2)ccc1Nc1ncc2c(n1)N(CCc1ccccc1)CCC(=O)N2C`: in test [12], the AC50 is 8.71 µM (active).
As for `Oc1nc2ccccc2n1C1CCN(C(c2cc3ccccc3o2)c2nnnn2Cc2ccccc2)CC1` (stereo not given), the AC50 in [1] is 19 µM (active); in [15] it was 9.44 µM (active); on Paired box protein Pax-8 it was 6.31 µM (active); in test [4], 9.76 µM (active); in [16], 9.97 µM (active); in test [17], 13.5 µM (active). Further, the half-maximal activity concentration (AC50) is 14.7 µM (active) in test [18] and 24.8 µM (active) in test [19].
On to `O=C(N[C@@H]1CC[C@@H](CCNS(=O)(=O)c2ccccc2Cl)O[C@@H]1CO)c1ccc(F)cc1`, for which the AC50 in test [4] is 36.1 µM (active).
As to `CC1(C(=O)N/N=C/c2ccc3c(c2)OCO3)CC1(Br)Br` (stereo not given), the AC50 is 7.47 µM (active) in test [8], 7.57 µM (active) in test [9], 5.4 µM (active) in test [10] and 4.12 µM (active) in [11].
Consider `C[C@]12CC[C@H](OC(=O)[C@@H](N)CCCCN)C[C@@H]1CC[C@@H]1[C@@H]2CC[C@@]2(C)[C@H]1CC[C@]2(C)O`, for which, in test [12], the AC50 is 1.93 µM (active).
Same read-out and setting: in the case of `CN1CCc2c(sc(N)c2C(=O)O)C1` it was 11.7 µM (active).

The values are drawn from ChEMBL document CHEMBL1201862, “PubChem BioAssay data set” (2004).
